Laboratory results published in patent publication US8450479B2, “3-substituted-4-oxo-3,4-dihydro-imidazo[5,1-d][1,2,3,5-tetrazine-8-carboxylic acid amides and their use” (Pharminox Limited, priority 2007, dated 2013).
Values joined by “and” are separate entries in the source; they are usually repeats but may differ in a detail not shown here. Equal values may be shown once. Read-outs that look alike come from different tables or passages of the source.

What was measured:
Assay in all cases: MTT assay for 7-day toxicity assay
Type in all cases: cell-based
Glioma SNB19M (MGMT+) = conditions: Glioma SNB19M (MGMT+)
Experimental: (§1) The cell culture techniques were carried out in a Class II microbiological safety cabinet which was swabbed with 70% IMS in distilled water before each use. […] MRC-5 cells were cultured in EMEM. Cells were grown in a humidified incubator containing 5% CO2 at 37° C. Cells were sub-cultured when growth exceeded approximately 80% confluence, normally twice weekly. The medium was aspirated from the flask and approximately 0.8 mL trypsin-EDTA 1× solution added. The cells were re-incubated at 37° C. until they visibly detached from the flask. The cell suspension was then re-suspended in 5 mL medium and 0.5-1 mL of the cell suspension was transferred to a new flask (25 cm^2) with 7 mL culture medium. The cells were further incubated at 37° C. incubator. Cells were disposed after passage nearly 30 times in order to minimize phenotypic drift. New batches of cells were taken from liquid nitrogen storage by thawing rapidly (37° C. water bath) and re-suspension in a 25 cm^2 flask with 10 mL of culture medium. Two passages were allowed to resume normal growth. For long-term maintenance, viable cells at 60-80% confluence were detached by minimum amount of trypsin/EDTA and re-suspended in sterile filtered freezing medium (95% FBS, 5% DMSO), transferred to sterile cryogenic vials, and frozen overnight at −20° C. followed by −80° C. for 1-2 days and stored in liquid nitrogen for long term storage.
(§2) Most test compounds, including temozolomide, were prepared as stock solution (100 mM) in DMSO and stored at −20° C. for not more than 6 months.
(§3) Glioma cell lines, SNB19 and U373, both MGMT transfected (i.e., SNB19M and U373M) and vector controls (i.e., SNB19V and U373V); colorectal carcinoma cell lines, HCT116, HT29, and DLD1; melanoma cell line, SKMEL-28; breast cell line, MCF-7; and normal human fetal lung fibroblast cell line, MRC-5; were harvested at 60-80% confluence—during the logarithmic phase of growth.
(§4) Following harvesting, cells in suspension were gently syringed through a 23 gauge needle to obtain a near-single cell suspension. The desired cell seeding densities were used and added into 96-well plates in 180 μL culture medium if only one test compound was to be added, or 160 μL if two test compounds were to be added in combination, which were allowed to attach at 37° C. (5% CO2) overnight. For the 7 day assay, the cell seeding density for different cell lines was as follows: SNB19V, SNB19M: 650 cells/well; U373V, U373M: 650 cells/well; SNB19VR, U373VR: 650 cells/well; HCT116, DLD-1, SKMEL-28, MRC-5, MCF-7: 400 cells/well.
(§5) The two peripheral lanes were used as blank wells (cell free) and filled with 200 μL of medium in order to minimise medium evaporation from the plate. A separate time zero (T0) plate was set up alongside other plates. Serial dilutions in tissue culture medium of a 100 mM stock of test compound in DMSO were prepared immediately before each assay to ten times the final concentrations required, and then 20 μL was added to each well (200 μL total media per well) to achieve final concentrations of 0.5 μM, 1 μM, 5 μM, 10 μM, 50 μM, 100 μM, 500 μM, and 1000 μM. A minimum of four wells received the same test compound concentration. To control wells, including those in the T0 plate, 20 μL of medium was added. […] A separate plate treated in the same way, but free of test compound, was used as a measure of cell viability at the time of drug addition (day 0).
(§6) After incubation at 37° C., 5% CO2 for 7 days (or immediately for the day 0 plate), cell viability was quantified using the MTT assay. 50 μL of sterile filtered MIT (3-(4,5-dimethylthiazol-2-yl)-2,5-diphenyltetrazolium bromide) (2 mg/mL in phosphate buffered saline) were added to each well (final concentration 0.4 mg/mL) and the plates were re-incubated for 4 hours to allow metabolic conversion of MTT by dehydrogenases in viable cells to insoluble formazan crystals.
(§7) The intensity of absorbance is directly proportional to cell viability.

Glioma U373M (MGMT+) = conditions: Glioma U373M (MGMT+)
Experimental: as §1, §2, §3, §4, §5, §6, §7

Glioma SNB19V (MGMT−) = conditions: Glioma SNB19V (MGMT−)
Experimental: as §1, §2, §3, §4, §5, §6, §7

Glioma U373V (MGMT low) = conditions: Glioma U373V (MGMT low)
Experimental: as §1, §2, §3, §4, §5, §6, §7

[1] = test system: Melanoma SKMEL-28 (MMR proficient); conditions: Homo sapiens, SK-MEL-28, 168 h, Melanoma SKMEL-28 (MMR proficient); 7-day MTT; single determinations; read-out: GI50
Experimental: (§8) The cell culture techniques were carried out in a Class II microbiological safety cabinet which was swabbed with 70% IMS in distilled water before each use. Glioma cells were routinely cultured in Costar tissue culture flasks in RPMI 1640 liquid medium (containing 0.3 g/L L-glutamine and 2 g/L sodium bicarbonate) supplemented with 10% heat inactivated FBS (55-59° C.) for 1 hour to denature complement proteins which would otherwise evoke a cellular immune response resulting in cell lysis, 1% non-essential amino acids, 50 μg/mL gentamicin and 400 μg/mL G418 (vector selected reagent). Colorectal and melanoma cells were maintained in RPMI 1640 supplemented with 10% FBS. MRC-5 cells were cultured in EMEM. Cells were grown in a humidified incubator containing 5% CO2 at 37° C. Cells were sub-cultured when growth exceeded approximately 80% confluence, normally twice weekly. The medium was aspirated from the flask and approximately 0.8 mL trypsin-EDTA 1× solution added. The cells were re-incubated at 37° C. until they visibly detached from the flask. The cell suspension was then re-suspended in 5 mL medium and 0.5-1 mL of the cell suspension was transferred to a new flask (25 cm^2) with 7 mL culture medium. The cells were further incubated at 37° C. incubator. Cells were disposed after passage nearly 30 times in order to minimize phenotypic drift. New batches of cells were taken from liquid nitrogen storage by thawing rapidly (37° C. water bath) and re-suspension in a 25 cm^2 flask with 10 mL of culture medium. Two passages were allowed to resume normal growth. For long-term maintenance, viable cells at 60-80% confluence were detached by minimum amount of trypsin/EDTA and re-suspended in sterile filtered freezing medium (95% FBS, 5% DMSO), transferred to sterile cryogenic vials, and frozen overnight at −20° C. followed by −80° C. for 1-2 days and stored in liquid nitrogen for long term storage.
as §2
(§9) This assay was first described in Mosmann, T., 1983, “Rapid colorimetric assay for cellular growth and survival: Application to proliferation and cytotoxicity assays”, Journal of Immunological Methods, Vol. 65, Nos. 1-2, pp. 55-63.
as §3, §4
(§10) The two peripheral lanes were used as blank wells (cell free) and filled with 200 μL of medium in order to minimise medium evaporation from the plate. A separate time zero (T0) plate was set up alongside other plates. Serial dilutions in tissue culture medium of a 100 mM stock of test compound in DMSO were prepared immediately before each assay to ten times the final concentrations required, and then 20 μL was added to each well (200 μL total media per well) to achieve final concentrations of 0.5 μM, 1 μM, 5 μM, 10 μM, 50 μM, 100 μM, 500 μM, and 1000 μM. A minimum of four wells received the same test compound concentration. […]

[2] = test system: Colon HT29 (MMR proficient); conditions: Homo sapiens, HT-29, 168 h, Colon HT29 (MMR proficient); 7-day MTT; single determinations; read-out: GI50
Experimental: as §8, §2, §9, §3, §4, §10

[3] = test system: Colon HCT116 (MMR mutated); conditions: Homo sapiens, HCT-116, 168 h, Colon HCT116 (MMR mutated); 7-day MTT; single determinations; read-out: GI50
Experimental: as §8, §2, §9, §3, §4, §10

[4] = 168 h, 7-day MTT, single determinations, read-out: GI50
[5] = 7-day MTT, single determinations, read-out: GI50
[6] = 168 h, 7-day MTT, single determinations
[7] = 7-day MTT, single determinations

Row | SMILES | GI50 (Glioma SNB19M (MGMT+); [4]) [µM] | GI50 (Glioma SNB19M (MGMT+); [5]) | GI50 (Glioma U373M (MGMT+); [4]) [µM] | GI50 (Glioma U373M (MGMT+); [5]) | GI50 (Glioma SNB19V (MGMT−); [4]) [µM] | GI50 (Glioma SNB19V (MGMT−); [5]) | GI50 (Glioma U373V (MGMT low); [4]) [µM] | GI50 (Glioma U373V (MGMT low); [5]) | other results
1 | NC(=O)c1ncn2c(=O)n(Cc3cccs3)nnc12 [CC-002, 4-oxo-3-(thiophen-2-ylmethyl)-3,4-dihydroimidazo[5,1-d][1,2,3,5]tetrazine-8-carboxamide] | 63.6 | 54.7 µM | 96.8 | 52.2 µM | 76.7 | 52 µM | 149 | 81.4 µM | 
2 | C[C@@H](c1ccccc1)n1nnc2c(C(N)=O)ncn2c1=O [BB-002, (S)-3-(−1-Phenylethyl)-8-carbamoylimidazotetrazin-4-one] |  |  |  |  |  |  |  |  | GI50 [1]: 222 µM; GI50 [2]: 243 µM; GI50 [3]: 206 µM; GI50 (Glioma SNB19M (MGMT+); [6]): 41.2 µM; GI50 (Glioma SNB19M (MGMT+); [7]): 49.7 µM; GI50 (Glioma U373M (MGMT+); [6]): 69.6 µM; GI50 (Glioma U373M (MGMT+); [7]): 95 µM; GI50 (Glioma SNB19V (MGMT−); [6]): 35.3 µM; GI50 (Glioma SNB19V (MGMT−); [7]): 34.1 µM; GI50 (Glioma U373V (MGMT low); [6]): 61.6 µM; GI50 (Glioma U373V (MGMT low); [7]): 70.7 µM
3 | NC(=O)c1ncn2c(=O)n(C3CC3)nnc12 [FF-002, 3-Cyclopropyl-8-carbamoylimidazotetrazin-4-one] | 593 | 637 µM and 418 µM | 369 | 346 µM and 367 µM | 516 | 376 µM and 392 µM | 293 | 386 µM and 241 µM | 
4 | NC(=O)c1ncn2c(=O)n(CCC(=O)O)nnc12 [LL-001, 3-(8-Carbamoyl-oxoimidazo[5,1-d][1,2,3,5]tetrazin-3(4H)-yl)propanoic acid] | 397 | 232 µM | 236 | 281 µM | 356 | 355 µM | 234 | 248 µM | 
5 | COc1ccc(Cn2nnc3c(C(N)=O)ncn3c2=O)cc1OC [AA-005, 3-(3,4-dimethoxybenzyl)-4-oxo-3,4-dihydroimidazo[5,1-d][1,2,3,5]tetrazine-8-carboxamide] | 282 | 232 µM | 301 | 224 µM | 218 | 114 µM | 197 | 259 µM | 
6 | CC(C)n1nnc2c(C(N)=O)ncn2c1=O [PP-001, 3-Isopropyl-8-carbamoylimidazotetrazin-4-one] |  |  |  |  |  |  |  |  | GI50 (Glioma SNB19M (MGMT+); read-out: GI50): > 1000 µM and 753 µM; GI50 (Glioma U373M (MGMT+); read-out: GI50): 427 µM and 657 µM; GI50 (Glioma SNB19V (MGMT−); read-out: GI50): > 1000 µM; GI50 (Glioma U373V (MGMT low); read-out: GI50): 387 µM and 580 µM
7 | COc1cc(Cn2nnc3c(C(N)=O)ncn3c2=O)cc(OC)c1OC [AA-002, 4-Oxo-3-(3,4,5-trimethoxybenzyl)-3,4-dihydroimidazo[5,1-d][1,2,3,5]tetrazine-8-carboxamide] |  |  |  |  |  |  |  |  | GI50 [1]: 293 µM; GI50 [2]: 128 µM; GI50 [3]: 393 µM
8 | NC(=O)c1ncn2c(=O)n(CCO)nnc12 [NN-002, 3-(2-Hydroxyethyl)-4-oxo-3,4-dihydroimidazo[5,1-d][1,2,3,5]tetrazine-8-carboxamide] |  |  |  |  |  |  |  |  | GI50 (Glioma SNB19M (MGMT+)): 396 µM and 437 µM; GI50 (Glioma U373M (MGMT+)): 248 µM and 398 µM; GI50 (Glioma SNB19V (MGMT−)): 200 µM and 210 µM; GI50 (Glioma U373V (MGMT low)): 209 µM and 368 µM
9 | CNC(=O)Cn1nnc2c(C(N)=O)ncn2c1=O [JJ-002, N-Methyl (8-Carbamoyl-oxoimidazo[5,1-d][1,2,3,5]tetrazin-3(4H)-yl)ethanamide] | 258 | 235 µM | 306 | 221 µM | 73.5 | 58.1 µM | 234 | 287 µM | 
10 | NC(=O)c1ncn2c(=O)n(Cc3c[nH]nn3)nnc12 [CC-005, 4-Oxo-3-(1H-[1,2,3]triazol-4-ylmethyl)-3,4-dihydro-imidazo[5,1-d][1,2,3,5]tetrazine-8-carboxylic acid amide] | 257 | 409 µM | 334 | 330 µM | 357 | 239 µM | 261 | 400 µM | 
11 | NC(=O)c1ncn2c(=O)n(C3CCCC3)nnc12 [FF-001, 3-Cyclopentyl-8-carbamoylimidazotetrazin-4-one] | 292 | 238 µM | 228 | 204 µM | 318 | 266 µM | 169 | 163 µM | 
